pIC50: −log10 of the molar value.

The target in assay [1] is Protein smoothened (Homo sapiens, UniProt Q99835). The experiment in a line: Displacement of [3H]3-chloro-4,7-difluoro-N-(4-methoxy-3-(pyridin-4-yl)benzyl)-N-(4-(methylamino)cyclohexyl)benzo[b]thiophene-2-carboxamide from human Smoothened receptor expressed in CHO-K1 cells by membrane filter binding assay. Type of assay: cell-based.
Assay [2] addresses T1, Protein smoothened (Mus musculus, UniProt P56726). Format: cell-based, TM3.
Description: Inhibition of Smoothened receptor in mouse TM3 cells transfected with pTA-8xGli-Luc reporter gene assessed as inhibition of 25 nM 3-chloro-4,7-difluoro-N-(4-methoxy-3-(pyridin-4-yl)benzyl)-N-(4-(methylamino)cyclohexyl)benzo[b]thiophene-2-carboxamide-induced Hedgehog pathway activation by Gli shift assay
Assay [3] concerns the target T1, Protein smoothened. The experiment in a line: Inhibition of Smoothened receptor in mouse TM3 cells transfected with pTA-8xGli-Luc reporter gene assessed as inhibition of 1 nM 3-chloro-4,7-difluoro-N-(4-methoxy-3-(pyridin-4-yl)benzyl)-N-(4-(methylamino)cyclohexyl)benzo[b]thiophene-2-carboxamide-induced Hedgehog pathway activation by Gli shift assay. Format: cell-based.

Assay [4] deals with T1, Protein smoothened. The experiment in a line: Displacement of [3H]3-chloro-4,7-difluoro-N-(4-methoxy-3-(pyridin-4-yl)benzyl)-N-(4-(methylamino)cyclohexyl)benzo[b]thiophene-2-carboxamide from mouse Smoothened receptor expressed in CHO-K1 cells by membrane filter binding assay. Type of assay: cell-based.

Protein smoothened (Homo sapiens, UniProt Q99835), sequence (Q99835 whole entry): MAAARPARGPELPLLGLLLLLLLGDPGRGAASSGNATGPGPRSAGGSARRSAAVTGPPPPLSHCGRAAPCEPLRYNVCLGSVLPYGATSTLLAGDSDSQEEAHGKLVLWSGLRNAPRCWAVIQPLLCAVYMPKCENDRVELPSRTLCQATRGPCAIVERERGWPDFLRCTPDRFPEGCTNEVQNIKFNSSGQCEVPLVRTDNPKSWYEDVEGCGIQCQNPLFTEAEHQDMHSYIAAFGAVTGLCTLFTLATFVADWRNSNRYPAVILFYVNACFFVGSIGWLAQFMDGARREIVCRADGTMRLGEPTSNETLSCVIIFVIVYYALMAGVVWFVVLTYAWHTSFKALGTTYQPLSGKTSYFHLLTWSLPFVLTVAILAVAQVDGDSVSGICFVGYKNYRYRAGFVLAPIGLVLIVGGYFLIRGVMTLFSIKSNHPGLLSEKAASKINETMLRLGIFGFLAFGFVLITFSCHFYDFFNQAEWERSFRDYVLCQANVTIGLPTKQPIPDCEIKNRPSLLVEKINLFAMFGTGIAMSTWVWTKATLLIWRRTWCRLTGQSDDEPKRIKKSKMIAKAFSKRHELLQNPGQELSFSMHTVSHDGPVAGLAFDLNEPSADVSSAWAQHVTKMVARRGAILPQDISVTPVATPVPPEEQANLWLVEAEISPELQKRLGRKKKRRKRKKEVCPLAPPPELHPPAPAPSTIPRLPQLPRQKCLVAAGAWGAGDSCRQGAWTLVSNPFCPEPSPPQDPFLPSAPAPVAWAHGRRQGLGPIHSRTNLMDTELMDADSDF
T1 sequence (P56726 whole entry): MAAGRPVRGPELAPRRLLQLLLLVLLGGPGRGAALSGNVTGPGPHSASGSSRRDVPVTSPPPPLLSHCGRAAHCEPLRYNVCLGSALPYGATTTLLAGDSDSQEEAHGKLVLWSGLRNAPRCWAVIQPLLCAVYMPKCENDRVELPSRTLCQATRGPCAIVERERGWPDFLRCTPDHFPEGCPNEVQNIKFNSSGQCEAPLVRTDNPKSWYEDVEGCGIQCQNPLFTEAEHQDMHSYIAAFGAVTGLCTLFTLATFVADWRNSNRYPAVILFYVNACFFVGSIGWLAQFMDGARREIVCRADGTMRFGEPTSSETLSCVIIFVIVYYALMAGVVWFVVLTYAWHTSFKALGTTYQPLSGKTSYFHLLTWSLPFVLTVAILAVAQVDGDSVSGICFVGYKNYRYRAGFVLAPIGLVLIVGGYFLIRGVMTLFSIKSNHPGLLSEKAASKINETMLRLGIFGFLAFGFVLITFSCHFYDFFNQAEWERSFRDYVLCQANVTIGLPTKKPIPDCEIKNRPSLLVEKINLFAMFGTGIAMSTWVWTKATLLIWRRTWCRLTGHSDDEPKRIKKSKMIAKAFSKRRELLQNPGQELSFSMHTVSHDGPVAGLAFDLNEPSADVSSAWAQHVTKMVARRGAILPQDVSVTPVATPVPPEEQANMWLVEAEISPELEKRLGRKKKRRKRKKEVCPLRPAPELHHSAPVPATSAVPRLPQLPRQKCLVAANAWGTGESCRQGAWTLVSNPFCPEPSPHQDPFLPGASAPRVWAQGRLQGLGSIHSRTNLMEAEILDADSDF

Take `CC(C)(N)c1ccc(N2CCN(c3nnc(Cc4ccccc4)c4ccccc34)CC2)nc1`: the pIC50 in assay [1] is 7.82; in assay [2], 7.38; in assay [3], 8.89; in assay [4], 8.22.

Take `OCc1ccc(N2CCN(c3nnc(Cc4ccccc4)c4ccccc34)CC2)nc1`: the pIC50 is 6.32 in assay [1], 5.61 in assay [2], 6.43 in assay [3] and 6.73 in assay [4].

`N#Cc1ccc(N2CCN(c3cnc(Cc4ccccc4)c4ccccc34)CC2)nc1`: the pIC50 is below 5.30 in assay [1], 5.60 in assay [2], 6.04 in assay [3] and below 5.30 in assay [4].

Regarding `N#Cc1ccc(N2CCN(c3nnc(Cc4ccc(C(=O)O)cc4)c4ccccc34)CC2)nc1`, the pIC50 in assay [1], in assay [2], in assay [3] and in assay [4] was below 5.30 throughout.

For the compound `CC(O)c1ccc(N2CCN(c3nnc(Cc4ccccc4)c4ccccc34)CC2)nc1` (stereo unspecified), the pIC50 was 7.17 in assay [1], 6.65 in assay [2], 7.42 in assay [3] and 7.21 in assay [4].

As to `N#Cc1ccc(N2CCC(c3cn(Cc4ccccc4)c4ccccc34)CC2)nc1`, the pIC50 is 6.40 in assay [1], 5.82 in assay [2], 6.42 in assay [3] and 6.41 in assay [4].

As for `C[C@@H]1CN(c2nnc(Cc3ccccc3)c3ccccc23)CCN1c1ccc(C#N)cn1`, the pIC50 in assay [1] is 7.47; in assay [2], 6.61; in assay [3], 7.52; in assay [4] it was 7.77.

In the case of `FC(F)(F)c1ccc(N2CCN(c3nnc(Cc4ccccc4)c4ccccc34)CC2)nc1`, the pIC50 in assay [1] was 7.02; in assay [2], 5.88; in assay [3] it was 6.87; in assay [4], 7.13.

Regarding `C[C@H]1CN(c2ccc(C#N)cn2)CCN1c1nnc(Cc2ccccc2)c2ccccc12`, the pIC50 is 7.77 in assay [1], 6.68 in assay [2], 7.60 in assay [3] and 7.66 in assay [4].

Turning to `N#Cc1ccc(Cc2nnc(N3CCN(c4ccc(C#N)cn4)CC3)c3ccccc23)cc1`, the negative logarithm of the IC50 (pIC50) in assay [1] is 7.47; in assay [2], 6.59; in assay [3] it was 7.70; in assay [4] it was 7.64.

As to `N#Cc1ccc(N2CCN(c3nnc(Cc4ccc(F)cc4)c4ccccc34)CC2)nc1`, the negative-log IC50 (pIC50) is 6.99 in assay [1], 6.01 in assay [2], 6.95 in assay [3] and 7.16 in assay [4].

For the compound `NC(=O)c1ccc(N2CCN(c3nnc(Cc4ccccc4)c4ccccc34)CC2)nc1`, the pIC50 in assay [1] is 6.14; in assay [2], 6.83; in assay [3], 7.34; in assay [4], 6.76.

For `N#Cc1ccc(N2CCN(c3nnc(Cc4ccccc4)c4ccccc34)CC2)nc1`, the pIC50 in assay [1] was 6.95; in assay [2] it was 6.09; in assay [3], 7.16; in assay [4] it was 7.15.

As to `N#Cc1ccc(N2CCCN(c3nnc(Cc4ccccc4)c4ccccc34)CC2)nc1`, the pIC50 in assay [1] was 6.41; in assay [2], 5.79; in assay [3] it was 6.68; in assay [4], 6.82.

`NS(=O)(=O)c1ccc(N2CCN(c3nnc(Cc4ccccc4)c4ccccc34)CC2)nc1`: the pIC50 in assay [1] is 6.51; in assay [2] it was 6.04; in assay [3] it was 6.98; in assay [4], 7.05.

As to `N#Cc1ccc(C2CCN(c3nnc(Cc4ccccc4)c4ccccc34)CC2)cc1`, the pIC50 was below 5.30 in assay [1], below 5.30 in assay [2], 5.42 in assay [3] and below 5.30 in assay [4].

For `COC(=O)c1ccc(Cc2nnc(N3CCN(c4ccc(C#N)cn4)CC3)c3ccccc23)cc1`, the pIC50 was 5.53 in assay [1], below 5.30 in assay [2], 6.58 in assay [3] and 6.78 in assay [4].

With `C[C@@H]1CN(c2ccc(C#N)cn2)CCN1c1nnc(Cc2ccccc2)c2ccccc12`, the pIC50 in assay [1] was 6.66; in assay [2] it was 6.13; in assay [3], 7.07; in assay [4], 6.74.

For `O=C(O)c1ccc(N2CCN(c3nnc(Cc4ccccc4)c4ccccc34)CC2)nc1`, the pIC50 is 5.65 in assay [1], below 5.30 in assay [2], 5.57 in assay [3] and 5.78 in assay [4].

Regarding `N#Cc1ccc(N2CCN(c3ncc(Cc4ccccc4)c4ccccc34)CC2)nc1`, the pIC50 in assay [1] was below 5.30; in assay [2] it was 5.52; in assay [3], 5.85; in assay [4], below 5.30.

Regarding `c1ccc(Cc2nnc(N3CCN(c4ccccc4)CC3)c3ccccc23)cc1`, the pIC50 in assay [1] was 5.37; in assay [2], 5.65; in assay [3] it was 6.38; in assay [4], 5.96.

Regarding `CC(=O)NCc1ccc(N2CCN(c3nnc(Cc4ccccc4)c4ccccc34)CC2)nc1`, the pIC50 in assay [1] is 6.71; in assay [2], 6.49; in assay [3] it was 7.46; in assay [4] it was 7.02.

`C[C@H]1CN(c2nnc(Cc3ccccc3)c3ccccc23)CCN1c1ccc(C#N)cn1`: the pIC50 is 7.23 in assay [1], 6.13 in assay [2], 7.10 in assay [3] and 7.18 in assay [4].

On to `c1ccc(Cc2nnc(N3CCN(c4ccccn4)CC3)c3ccccc23)cc1`, for which the pIC50 in assay [1] was 5.91; in assay [2], 6.11; in assay [3], 6.59; in assay [4], 6.19.

With `CN(C)Cc1ccc(N2CCN(c3nnc(Cc4ccccc4)c4ccccc34)CC2)nc1`, the pIC50 in assay [1] was 6.18; in assay [2], 6.61; in assay [3], 7.85; in assay [4] it was 6.54.

For `N#Cc1ccc(N2CCN(c3nnc(Cc4cccc(Cl)c4)c4ccccc34)CC2)nc1`, the pIC50 in assay [1] was 7.09; in assay [2], 6.16; in assay [3], 6.95; in assay [4], 7.27.

For `FC(F)(F)c1ccc(N2CCN(c3nnc(Cc4ccccc4)c4ccoc34)CC2)nc1`, the pIC50 in assay [1] was below 5.30; in assay [2] it was below 5.30; in assay [3] it was 5.75; in assay [4] it was below 5.30.

`OC1(c2ccc(N3CCN(c4nnc(Cc5ccccc5)c5ccccc45)CC3)nc2)CC1`: the negative-log IC50 (pIC50) was 7.68 in assay [1], 6.46 in assay [2], 7.26 in assay [3] and 8.00 in assay [4].

Regarding `c1ccc(N2CCN(c3nnc(Cc4ccncc4)c4ccccc34)CC2)nc1`, the pIC50 in assay [1] was below 5.30; in assay [2], 5.35; in assay [3], 6.16; in assay [4], 5.43.

`FC(F)(F)c1ccc(N2CCN(c3nnc(Cc4ccccc4)c4[nH]cnc34)CC2)nc1`: the pIC50 in assay [1] is below 5.30; in assay [2], 5.81; in assay [3], 6.14; in assay [4], below 5.30.

As to `FC(F)(F)c1ccc(N2CCN(c3nnc(Cc4ccccc4)c4occc34)CC2)nc1`, the pIC50 in assay [1] was 6.64; in assay [2], 5.59; in assay [3], 6.67; in assay [4], 6.86.

For the compound `N#Cc1ccc(N2CCN(c3nnc(Cc4ccc(C(F)(F)F)cc4)c4ccccc34)CC2)nc1`, the pIC50 in assay [1] is 6.73; in assay [2], 5.91; in assay [3], 6.44; in assay [4], 6.65.

Turning to `CC(O)(CO)c1ccc(N2CCN(c3nnc(Cc4ccccc4)c4ccccc34)CC2)nc1` (racemic), the pIC50 is 7.15 in assay [1], 6.87 in assay [2], 7.77 in assay [3] and 7.55 in assay [4].

With `N#Cc1ccc(N2CCN(c3nnc(Cc4ccc(Cl)cc4)c4ccccc34)CC2)nc1`, the pIC50 in assay [1] was 7.60; in assay [2], 6.30; in assay [3], 7.32; in assay [4] it was 7.70.

For orientation: pIC50 means the negative decadic logarithm of the IC50, by convention in mol/L.

The values are drawn from ChEMBL document CHEMBL1136988, “1-amino-4-benzylphthalazines as orally bioavailable smoothened antagonists with antitumor activity” (J Med Chem, 2009).
